Read-outs that look alike come from different tables or passages of the source.
Assays:
[1] = Solubility / formulation test in solvent 1 and solvent 2; assay type: physicochemical; conditions: for Concentration achieved, completely dissolved in both solvent 1 and solvent 2: solvent 1 injectable water
Protocol: In Table 11, AAN, AANL and AANK indicate the linkage formed by small peptides in the compounds, A is Ala, N is Asn, L is Leu and K is Lys. […] The dissolution concentration is 10 mg/ml.
B1, B2, B3 and B4 and various control compounds were dried under vacuum, sterilized via gas sterilization, and separately packing in a sterile room. Before animal test, B1, B2, B3 and B4 were dissolved by solvent 1 (injectable water) or solvent 2 (30% alcohol, 70% injectable water) and diluted by injectable water to the desired concentration in sterile room. […] Change in solubility may greatly affect the formulation scheme of a drug.
D1, D2, D3, D4 and various control compounds were dried under vacuum, sterilized via gas sterilization, and separately packing in a sterile room. […] Change in solubility may greatly affect the formulation scheme of a drug.

4T1 cells = assay: BALB/C mice model for tumor metastasis (4T1, lung metastases); assay type: in vivo; conditions: for Inhibitory effect on tumor metastasis, in words: compared with parent drug group and control group
Method in brief: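 10^6 4T1 cells (DMEM, 10% FBS, within passage 15) injected subcutaneously into the back of BALB/C mice; primary tumor resected at about 1.5 cm, then dosing began. Drugs given IV once every three days, 4 times; saline controls. Lungs removed day 27, Bouin's-stained, metastases counted under anatomical microscope.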

tumor tissue homogenates = assay type: biochemical
Method in brief: (§1)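 Compounds at 1 mg/ml were incubated at 37°C with 100 μg acidized tissue homogenate (pH 6.0). Activation by homogenate proteases was assessed.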

[2] = tested on: Human fibrosarcoma HT-1080 tumor tissue homogenate; assay type: biochemical; conditions: for Activation ratio (%) in homogenates from different tumor tissues: Human fibrosarcoma HT-1080
Method in brief: as §1

Human heart = assay type: biochemical; conditions: for Activation ratio (%) in homogenates from different tumor tissues: Human heart, 1 mg/ml
BALB/C mice = assay: Maximum tolerated dose (MTD) / acute toxicity by single intravenous injection; conditions: for Behaviors and death observed: BALB/C mice receiving 90 mg/kg injection
[3] = tested on: Human prostate cancer PC-3 cells / Panc-1 cells; assay: Tumor treatment in nude mice (PC-3 cells purchased, Panc-1 cells injected; Examples 22, 32, 42); assay type: in vivo; conditions: for Inhibition on tumor growth, in words: compared with parent drug group (same molar concentration) and control group
Method in brief: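 Nude mice bearing subcutaneous Panc-1 xenografts (5×10^6 cells on the back) were randomized once tumors reached at least 100 mm^3. Drugs were given intravenously once weekly for four weeks, with saline controls. PC-3 cells were grown in DMEM/10% FBS and used within passage 15.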

[4] = tested on: Human breast cancer MDA-MB435; assay: Multiple tumor models in nude mice: MDA-MB435; assay type: in vivo; conditions: 15 mg/kg once weekly for three weeks, Day 26
Protocol: 1) Corresponding tumor cells were purchased from American type culture collection (ATCC) and identified according the specification provided by ATCC. Cells were cultivated in DMEM culture solution containing 10% fetal bovine serum at 37° C. and 5% CO2. The cells were passaged for every three days and cells within the 15th passage were used.
2) Production of tumor. 5×10^6 corresponding cells were subcutaneously injected to the back of the nude mice. Mice were randomly grouped after the tumor reached at least 100 mm^3. Then treatment began and the day on which the treatment began was day 1.
(§2) 3) Course of treatment. […] The control group was administered by physiological saline. Animals were administered once weekly for three weeks.
3) Course of treatment. According to the clinical application of A1, A1 was administered in a dose of ⅙ MTD, i.v., 17.6 μmol/kg. The control group was administered by physiological saline. Animals were administered once weekly for three weeks.
3) Course of treatment. According to the clinical application of B1, B1 was administered in a dose of ⅙ MTD, i.v., 17.6 μmol/kg. The control group was administered by physiological saline. Animals were administered once weekly for three weeks.
as §2, §2

[5] = Table 28, BALB/C mice, 4T1, lung metastases day 27, IV every three days for 4 times, A1-A4 12 mg/kg, Paclitaxel 4 mg/kg
[6] = single intravenous injection, 125 mg/kg, 10 BALB/C mice per group
[7] = single intravenous injection, 150 mg/kg, 10 BALB/C mice per group
[8] = single intravenous injection, 175 mg/kg, 10 BALB/C mice per group
[9] = single intravenous injection, 200 mg/kg, 10 BALB/C mice per group
[10] = Table 26, nude mice, IV once weekly for four weeks, A1-A4 24 mg/kg, Paclitaxel 8 mg/kg
[11] = 4T1, BALB/C mice, lung, day 27, IV every three days for 4 times, S1′-S4′ 12 mg/kg, Paclitaxel 4 mg/kg
[12] = nude mice, IV once weekly for four weeks, S1′-S4′ 24 mg/kg, Paclitaxel 8 mg/kg, Day 10
[13] = nude mice, IV once weekly for four weeks, S1′-S4′ 24 mg/kg, Paclitaxel 8 mg/kg

COCCOCCOCCOCCOCCOCCOCCOCCOCCOCCOCCOCC(=O)NCCCC[C@H](NC(=O)COCCOCCOCCOCCOCCOCCOCCOCCOCCOCCOCCOC)C(=O)N[C@H](C)C(=O)N[C@H](C)C(=O)N[C@H](CC(N)=O)C(=O)Nc1ccc(COC(=O)OC(C(=O)OC2C[C@@]3(O)[C@@H](OC(=O)c4ccccc4)[C@H]4[C@](C)(C(=O)[C@H](OC(C)=O)C(=C2C)C3(C)C)[C@@H](O)CC2OC[C@]24OC(C)=O)[C@@H](NC(=O)c2ccccc2)c2ccccc2)cc1 (stereo partly drawn) [Compound A3]
solubility in Solvent 1 ([1]; solvent 1 (injectable water), Table 22, Paclitaxel series): soluble
Concentration achieved, completely dissolved in both solvent 1 and solvent 2 ([1]; solvent 2 45% alcohol, 55% injectable water): 10 mg/mL
solubility in Solvent 2 ([1]; solvent 2 (45% alcohol, 55% injectable water), Table 22, Paclitaxel series): soluble
Solubility in water, in words ([1]; water): can directly dissolve in water
Inhibitory rate on metastasis (4T1 cells; [5]): 89.1%
Number of metastasized tumor (4T1 cells; [5]): 16 ± 9
Inhibitory effect on tumor metastasis, in words (4T1 cells): greatly improved
Activation efficiency by tumor tissue, in words (tumor tissue homogenates): highest activation efficiency among the screened compounds
Activation ratio (%) in homogenates from different tumor tissues ([2]; 1 mg/ml, 100 μg acidized homogenate pH6.0, Paclitaxel release by HPLC): 70.3%
Activation ratio (%) in homogenates from different tumor tissues (Human heart; acidized homogenate pH6.0, Paclitaxel release by HPLC): none
Behaviors and death observed (BALB/C mice): no pilo-erection, hair tousle and lackluster, lethargy, stoop, irritable reaction and death
Mortality rate (%) (BALB/C mice; [6]): 10%
Number of dead animal (BALB/C mice; [6]): 1
Mortality rate (%) (BALB/C mice; [7]): 0%
Number of dead animal (BALB/C mice; [7]): 0
Mortality rate (%) (BALB/C mice; [8]): 0%
Number of dead animal (BALB/C mice; [8]): 0
Mortality rate (%) (BALB/C mice; [9]): 0%
Number of dead animal (BALB/C mice; [9]): 0
inhibitory rate on tumor Day 10 ([3]; Table 26, nude mice, IV once weekly for four weeks, A1-A4 24 mg/kg, Paclitaxel 8 mg/kg, Day 10): 71.9%
Size of tumor (mm^3) Day 24 [3, 10]: 81.83 ± 89.2 mm^3
inhibitory rate on tumor Day 24 [3, 10]: 78.5%
Inhibition on tumor growth, in words [3]: greatly improved

COCCOCC(=O)N[C@H](C)C(=O)N[C@H](C)C(=O)N[C@H](CC(N)=O)C(=O)Nc1ccc(COC(=O)N2[C@@H]3CN4C5=C(C(=O)C(N)=C(C)C5=O)[C@H](COC(N)=O)[C@]4(OC)[C@@H]32)cc1 [Compound E1, 2-(2-methoxyethoxy) acetyl-L-Ala-L-Ala-L-Asn-4-amino benzyl mitomycin]
Inhibitory effect on tumor metastasis, in words (4T1 cells): greatly improved
Inhibitory rate on metastasis (4T1 cells; day 27, IV once every three days for 4 times, E1-E4 15 mg/kg, mitomycin 1 mg/kg): 99.2%
Number of metastasized tumor (4T1 cells; lung metastases counted on day 27, IV once every three days for 4 times, E1-E4 15 mg/kg, mitomycin 1 mg/kg): 2 ± 3
inhibitory rate on tumor (Day 26) [4]: 86.3%
Activation ratio (%) in homogenates from different tumor tissues ([2]; 37° C., 1 mg/ml, 100 μg acidized homogenate): 83.6%
Mortality rate (%) (BALB/C mice; 50 mg/kg single IV injection, 10 BALB/C mice): 0%
Number of dead animal (BALB/C mice; 50 mg/kg single IV injection, 10 BALB/C mice, observed 17 days): 0
Mortality rate (%) (BALB/C mice; 70 mg/kg single IV injection, 10 BALB/C mice): 0%
Number of dead animal (BALB/C mice; 70 mg/kg single IV injection, 10 BALB/C mice, observed 17 days): 0
Mortality rate (%) (BALB/C mice; 90 mg/kg single IV injection, 10 BALB/C mice): 0%
Number of dead animal (BALB/C mice; 90 mg/kg single IV injection, 10 BALB/C mice, observed 17 days): 0
Mortality rate (%) (BALB/C mice; 110 mg/kg single IV injection, 10 BALB/C mice): 10%
Number of dead animal (BALB/C mice; 110 mg/kg single IV injection, 10 BALB/C mice, observed 17 days): 1
Behaviors and death observed (BALB/C mice): no pilo-erection, hair tousle and lackluster, lethargy, stoop, irritable reaction and death

CCCCCOC(=O)Nc1nc(=O)n([C@@H]2O[C@H](C)[C@@H](OC(=O)OCc3ccc(NC(=O)[C@H](CC(N)=O)NC(=O)[C@H](C)NC(=O)[C@H](C)NC(=O)CCCCCCC(=O)NO)cc3)[C@H]2O)cc1F [Compound S3, 4-N—(N—(N—(N-(8-(N-hydroxylamino)-1,8-octandioic acid-1-monoacyl)-L-alanyl)-L-alanyl)-L-asparaginyl)-amino benzyl alcohol-capecitabine-carbonic acid diester]
Activation efficiency by tumor tissue, in words (tumor tissue homogenates): very high activation efficiency
Activation Efficiencies (%) ([2]; Human fibrosarcoma HT-1080 tumor tissue homogenate (30 μg/ml), 1 mg/ml compound): 94.9%
Activation Efficiencies (%) (Human heart; Human heart homogenate, 1 mg/ml compound): 1.6%

COCCOCCOCCOCCOCCOCCOCCOCCOCCOCCOCCOCC(=O)N[C@H](C)C(=O)N[C@H](C)C(=O)N[C@H](CC(N)=O)C(=O)Nc1ccc(COC(=O)OC(C(=O)OC2C[C@@]3(O)[C@@H](OC(=O)c4ccccc4)[C@H]4[C@](C)(C(=O)[C@H](OC(C)=O)C(=C2C)C3(C)C)[C@@H](O)CC2OC[C@]24OC(C)=O)[C@@H](NC(=O)c2ccccc2)c2ccccc2)cc1 (stereo partly drawn) [S3′]
solubility in Solvent 1 ([1]; Solvent 1 injectable water, dissolution concentration 10 mg/ml): soluble
solubility in Solvent 2 ([1]; Solvent 2: 50% injectable water, 45%-49% propanediol, 1%-5% Tween80, dissolution concentration 10 mg/ml): soluble
Concentration achieved, completely dissolved in both solvent 1 and solvent 2 ([1]; solvent 2 50% injectable water, 42%-49% propanediol, 1%-8% Tween80): 10 mg/mL
Inhibitory rate on metastasis (4T1 cells; [11]): 90.44%
Number of metastasized tumor (4T1 cells; [11]): 13 ± 8
Inhibitory effect on tumor metastasis, in words (4T1 cells): greatly improved
Activation efficiency by tumor tissue, in words (tumor tissue homogenates): highest activation efficiency among the screened compounds
Activation ratio (%) in homogenates from different tumor tissues ([2]; 100 μg acidized homogenate pH6.0, 1 mg/ml, 37°): 67.9%
Activation ratio (%) in homogenates from different tumor tissues (Human heart; 37°): none
Behaviors and death observed (BALB/C mice): no pilo-erection, hair tousle and lackluster, lethargy, stoop, irritable reaction and death
Mortality rate (%) (BALB/C mice; BALB/C mice, single iv, 125 mg/kg): 0%
Number of dead animal (BALB/C mice; BALB/C mice, single iv, 125 mg/kg, 10 animals): 0
Mortality rate (%) (BALB/C mice; BALB/C mice, single iv, 150 mg/kg): 0%
Number of dead animal (BALB/C mice; BALB/C mice, single iv, 150 mg/kg, 10 animals): 0
Mortality rate (%) (BALB/C mice; BALB/C mice, single iv, 175 mg/kg): 0%
Number of dead animal (BALB/C mice; BALB/C mice, single iv, 175 mg/kg, 10 animals): 0
Mortality rate (%) (BALB/C mice; BALB/C mice, single iv, 200 mg/kg): 10%
Number of dead animal (BALB/C mice; BALB/C mice, single iv, 200 mg/kg, 10 animals): 1
Inhibition on tumor growth, in words [3]: greatly improved
Size of tumor (mm^3) Day 10 [3, 12]: 75.60 ± 28.54 mm^3
inhibitory rate on tumor Day 10 [3, 12]: 49.4%
Size of tumor (mm^3) Day 24 [3, 13]: 74.39 ± 48.94 mm^3
inhibitory rate on tumor Day 24 [3, 13]: 70.2%

— patent US10682371B2, “Small molecule conjugates specifically activated in tumor microenvironment for targeting and use thereof” (priority 2014, dated 2020)
